Patent US12509734B2, “Systems and methods to assess microbiomes and treatments thereof” (priority 2013, dated 2025)

Assays:
[1] = tested on: vaginal microbiota; assay: 16S-C&S (broad-spectrum clone and sequence) with and without LB-blocking of acute BV and post-tinidazole lavages (Tables 3C, 3D); type: in vivo, human
Description: Amplicon cloning. Amplicon cloning. Broad-spectrum PCR targets were amplified for varying cycle numbers, typically Cp plus 1 or 2 cycles to achieve a “just visible” product on an agarose ethidium-bromide gel. Amplicons derived from PB primers were sequenced directly with the rationale that any species present at 5-10× others amplified by the same PB primer would generate a single, readable sequence; amplicons from PB primers that were unreadable as uncloned amplicons were cloned after nested PCR. They were amplified to maximum fluorescence or maximum cycles for that primer. Products were cleaned by ultrafiltration with the MONTAGE™ PCR kit UFC7PCR50 (Millipore) or QIAQUICK® PCR purification kit (QIAGEN®). One to three microliters of the 20 μl purified product was ligated into pGEM-T Easy vector using the PGEM-T™ Easy Ligation Kit (Promega) according to the manufacturer's specifications. The ligation reaction was carried out for from 4 hours to overnight at 4° C. Forty microliters of E. coli cells (strain XL1-BLUE®, Stratagene) were electroporated using a BioRad GenePulser and Pulse Controller (set at 2.5 kV, 25 μFD capacitance, and 200 ohms resistance) with 1 μl of the ligation, allowed to recover in LB broth 1 h at 37° C., then plated onto LB agar plus 100 μg/ml ampicillin with 0.1 mM IPTG and 20 μg/ml X-gal and grown overnight at 37° C. White colonies and a few blue control colonies were picked from the plates into 100 μl of 15% glycerol or TE, incubated at 94° C. for 5 m; 2 μl of this was amplified in 8 μl of reaction buffer as described, using primers that flank the cloning site in the vector (pUC-F […] (SEQ ID NO: 88), pUC-R […] (SEQ ID NO: 89); 95° C. (1 m), [95° C. (30 s), 45° C. (30 s), 72° C. (30 s)] for 40 cycles, 72° C. (5 m). Extension times for cloned amplicons from PB primers were adjusted as appropriate for each amplicon size according to Tables 3A-3D. An aliquot of each amplicon was tested by agarose gel electrophoresis.
Sequencing and analysis. Full length amplicons (5 μl) were enzymatically cleaned using a 5 μl solution of 0.1 units of NTPhos thermolabile phosphatase and 1 unit of Exonuclease I (Epicentre Biotechnologies), in 20 mM Tris pH 8.3, 50 mM KCl and 10 mM MgCl2 (1×PCR reaction buffer, Invitrogen), incubated at 37° C. for 15 m, then inactivated at 80° C. for 15 m, and used for sequencing. Mini-libraries were constructed from amplicons with co-dominant species (which generate mixed template reads when uncloned); 17 mini-libraries each averaging 11 sequences were sequenced. Enzymatically cleaned amplicons were sequenced with the same primers used for amplification, or T7 for cloned amplicons (Functional Biosciences, Inc.). Sequences were uploaded to Ribosomal Database Project II using the Pipeline function in MyRDP for trimming, quality scoring, alignment, and identification. Only base calls with PHRED quality scores (Q) above 20 were considered. A small number of high quality sequences were rejected by the website as non-ribosomal and were not considered further in this analysis. Aligned sequences, their closest hits via SeqMatch, and manually selected reference species, were downloaded from myRDP, manually trimmed to common 5′ and 3′ ends, and analyzed with Molecular Evolutionary Genetics Analysis (MEGA4 and MEGA5) software. From this, trees were constructed using the bootstrapped Neighbor-Joining method or the Maximum Composite Likelihood method, and used for species identification.
Compositions determined by 16S-C&S were simply tallies of sequences in each taxa, defined here as those with >97% identity. These tallies were adjusted in libraries from LB-blocked PCR with a correction factor. To determine this factor, the titers of Gardnerella and LB were independently determined with and without blocking by PB-qPCR. Their ratio in the unblocked sample (7×10^−6) was increased in the blocked sample to 0.09, indicating an enrichment of 0.09/7×10^−6=12,600. […]

[2] = tested on: bacterial vaginosis (BV); assay: Clinical assessment of BV patients after therapy (Amsel criteria, Nugent score, recurrence); type: in vivo, human
Description: Patients. Five African American participants were followed at the Vaginitis Clinic at Wayne State University and had been treated for recurrent episodes symptomatic bouts of BV. Patients were enrolled after protocol explanation and written informed consent was obtained. The study was endorsed by the Human Investigational Review Board of Wayne State University. At the time of enrollment, patients were diagnosed with florid symptomatic acute BV, characterized by the presence of at least 3 of the 4 Amsel criteria (homogeneous vaginal discharge, pH elevated above 4.5, clue cells>20%, positive whiff test) and Nugent scores of at least 8.
At this immediate PT visit, patients were given Catch-All Sample Collection Swabs (Epicentre Biotechnologies, Madison, WI) and 15 mL conical tubes for vaginal specimen self-collection. […] Samples from a previously characterized group of recurrent BV patients, sampled before and after treatment, were also evaluated by Lb-qPCR. Reichman et al., Sexually Transmitted Diseases 36: 732-734, 2009.

[3] = post tinidazole lavage, 16S-C&S, Lactobacillaceae clones
[4] = post tinidazole lavage, 16S-C&S, target Bacteroidaceae/uc Prevotellaceae

## CCS(=O)(=O)CCn1c([N+](=O)[O-])cnc1C [tinidazole]
[1]; FIG. 3, B2, LB-blocked
  non-LB share of isolates in post-tinidazole sample: 0.003%
[1]; [3]
  ID Clones: L. iners: L. iners 83%, L.
  ID Clones: L. jensenii: jensenii 17%,
[1]; post tinidazole lavage, 16S-C&S, target Actinobacteria: Actinobacteridae
  Cells/sample: 1.3E+06 Cells/sample
[1]; post tinidazole lavage, 16S-C&S, target Alpha-Proteobacteria
  Cells/sample: 3.4E+04 Cells/sample
[1]; [4]
  Cells/sample: 3.4E+04 Cells/sample
  ID Clones: Bacteroides sp.
[1]; post tinidazole lavage, 16S-C&S, target Beta-Proteobacteria
  Cells/sample: 3.4E+04 Cells/sample
[1]; post tinidazole lavage, 16S-C&S, target Broad-spectrum
  Cells/sample: 8.4E+09 Cells/sample
[1]; post tinidazole lavage, 16S-C&S, target Clostridiales Incertae Sedis XI
  Cells/sample: 0 Cells/sample
[1]; post tinidazole lavage, 16S-C&S, target Clostridiales Incertae Sedis XII
  Cells/sample: 0 Cells/sample
[1]; post tinidazole lavage, 16S-C&S, target Coriobacteridae
  Cells/sample: 0 Cells/sample
[1]; post tinidazole lavage, 16S-C&S, target Cross-family Clostridia
  Cells/sample: 0 Cells/sample
[1]; post tinidazole lavage, 16S-C&S, target Enterobacteriales, Pasteurellales, Pseudomonadaceae
  Cells/sample: 3.4E+05 Cells/sample
[1]; post tinidazole lavage, 16S-C&S, target Epsilon-Proteobacteria
  Cells/sample: 3.4E+04 Cells/sample
[1]; post tinidazole lavage, 16S-C&S, target Firmicute: Lactobacillaceae
  Cells/sample: 8.4E+09 Cells/sample
[1]; post tinidazole lavage, 16S-C&S, target Fusobacterium
  Cells/sample: 0 Cells/sample
[1]; post tinidazole lavage, 16S-C&S, target Lachnospiracea uc & incertae sedis Clostridium IVa
  Cells/sample: 0 Cells/sample
[1]; post tinidazole lavage, 16S-C&S, target Megasphaera/Dialister/Veillonella
  Cells/sample: 0 Cells/sample
[1]; post tinidazole lavage, 16S-C&S, target Mobiluncus
  Cells/sample: 0 Cells/sample
[1]; post tinidazole lavage, 16S-C&S, target Mycoplasmatales
  Cells/sample: 0 Cells/sample
[1]; post tinidazole lavage, 16S-C&S, target Peptostreptococcaceae
  Cells/sample: 0 Cells/sample
[1]; post tinidazole lavage, 16S-C&S, target Staphylococcus
  Cells/sample: 0 Cells/sample
[1]; post tinidazole lavage, 16S-C&S, target Streptococcus
  Cells/sample: 0 Cells/sample
[1]; post tinidazole lavage, 16S-C&S, target uc Clostridiales (BVAB283 subset)
  Cells/sample: 0 Cells/sample
[2]; BV patient (Nugent 10 at acute phase), 500 mg twice a day for 10 days
  Clinical status after treatment: full remission
[2]; P4, 500 mg bid for 7 days
  Amine test after therapy: negative
  Clinical status one week after completing therapy: entirely asymptomatic
  Vaginal pH after therapy: 4.2
[2]; P4, followed for a month
  Recurrence of BV: did not recur
[2]; five recurrent BV patients, Nugent scores of 0 except Patient 5
  Outcome at return within three weeks by Amsel criteria: clinical cure
